Test system: human colon cancer cell HCT116 xenograft
Assay: Effect of thymidine derivative gel on therapeutical effect of capecitabine, HCT116 xenograft nude mice
Format: in vivo, mouse
Details: oral capecitabine 1.5 mmol/kg, 0.5% or 2% T1 gel on the back once per day, 14 days
Description: A BALB/C nude mouse (human colon cancer cell HCT116 xenograft) model was established. After the model was stable, the model mice were divided into four groups (in which the average tumor size of each of the 4 groups was kept as consistent as possible). Except the blank group (containing 5 mice), there were 10 mice in each group, which were subject to gavage and application experiments.
Capecitabine was dissolved in a mixed solution of castor oil:ethanol=1:1 (volume ratio). Prior to gavage, the mixture was diluted with PBS to the desired concentration (diluted for about 3 times with PBS solution). […]
A: Group of blank: 5 mice with tumors, no gavage and no drug application; B: blank group: 10 mice with tumors, oral gavage with capecitabine (1.5 mmol/kg), application with blank gel on the back (once per day for 14 days); C: 0.5% T1 group: 10 mice with tumors, oral gavage of capecitabine, application with 0.5% T1 gel (administration method and frequency are the same as those in group B); D: 2% T1 gel group: 10 mice with tumors, oral gavage of capecitabine, application of 2% T1 gel (administration method and frequency are the same as those in group B). […] The tumor size was measured and recorded every 2 days. After 14 days of the experiment, the mice were dissected to take out the tumor, which was weighed and recorded.

Structure (SMILES): CC(=O)OCC1OC(n2cc(C)c(=O)[nH]c2=O)CC1OC(C)=O (stereo not shown) [T1]
- tumor volume with T1 gel versus blank gel: close to or slightly smaller than that of Group of blank gel
